Data from US8039430B2 (University of Wollongong, priority 2005, dated 2011).
In brackets after ≈: the same amount, converted by molar mass. Like-named read-outs stand apart in the source and are kept apart here.

Legend:
E.f449 = experiment: Antibacterial screening (MIC) of compounds of Example 2, E.f449; type: cell-based, Enterococcus faecium
Procedure: (§1) • All assays used the Staphylococcus aureus strain ATCC 6538P. • Assays described in Chapter 5 additionally used the vancomycin-resistant enterococci and vancomycin-sensitive enterococci strains Ef243, Ef449, Ef820 and Ef487. Culture Media • Mueller-Hinton Broth Medium (MHB): MHB (Oxoid CM405) was prepared with final concentrations of […] MgCl2 and 2 μg/mL CaCl2. Culture medium was pre-warmed for approximately 2-3 h at 37° C. before use. • Mueller-Hinton Agar Medium (MHA): MMB containing 1.5% Agar (Merck Agar 1.01614). Maintenance of Bacteria • From a thawed cryovial, the bacteria was streaked onto MHA and the plate incubated overnight at 37° C. • From this plate, 10 cryovials were prepared by looping several colonies into 0.5 mL of 20% glycerol solution. The cryovials were immediately stored at −140° C. Preparation of Seed Cultures • A cryovial was removed from −140° C. storage and thawed at room temperature. • An MHA plate was streaked with a loopful of bacterial suspension and incubated overnight at 37° C. to create a parent plate (P1). • A daughter plate (D1) was streaked from the parent plate and incubated overnight at 37° C. […] The second parent plate (P2) was used to generate two additional daughter plates using the procedure outlined above before being discarded. • Cryovials were used twice to prepare parent plates (P1 and P2) before being discarded. […] A vancomycin control set (triplicate) and a compound negative control set (triplicate) were also included on each plate (FIG. 1). • The inoculated culture medium was incubated at 37° C. for 30 min, with shaking at 130 rpm. • Using a multichannel pipette, the contents of the first row were mixed before 50 μL was transferred to the second row. The pipette tips were changed and the process repeated by 50 μL of the mixed broth solutions in the second row being transferred to the third row. This process was repeated until the last row contained either the diluted test compound or a control (vancomycin or compound-negative). […] Antibacterial Testing of Compounds of Example 2 Introduction
(§2) The specific testing procedures and protocols are outlined in the section “Antibacterial Screening Methodology for the Compounds of Example 2”.
(§3) Vancomycin was used as the standard/control.

E.f987 = experiment: Antibacterial screening (MIC) of compounds of Example 2, E.f987; type: cell-based, Enterococcus faecium; details: for Antibacterial activity μg/mL, E.f987: Example 2 compounds, enterococci strain E.f987
[1] = system: Staphylococcus aureus strain ATCC 6538P; experiment: Antibacterial screening (MIC) of compounds of Example 2, S. aureus, Mueller-Hinton broth; type: cell-based; details: for MIC: Staphylococcus aureus, ATCC6538P
Procedure: Antibacterial Screening Methodology for Compounds of Example 2
as §1, §2
The antibacterial activity results are measured by minimum inhibitory concentration (MIC), which is the lowest concentration of compound necessary to prevent bacterial growth.

E.f243 = experiment: Antibacterial screening (MIC) of compounds of Example 2, E.f243; type: cell-based, Enterococcus faecium
Procedure: as §1, §2, §3

HIV integrase enzyme = biological target: T1, HIV integrase enzyme (Human immunodeficiency virus type 1 group M subtype B, UniProt P04585); experiment: Cross testing of antibacterial compounds for ability to inhibit the HIV integrase enzyme; type: biochemical; details: Example 2 compounds; compared with lead 88
T1 construct: against the HIV integrase enzyme
Procedure: The results for the screening of the four target molecules 165-168 against the HIV integrase enzyme yielded some encouraging results which supported the proposed mechanism of binding in the active binding trench of the HIV integrase enzyme. The testing procedure for the four target compounds differed from the original screening protocols employed. The original screening measured inhibition against the 3′ processing function of the enzyme at the fixed concentration of 50 μg/mL, whereas the four target molecules were tested in an assay adapted from a literature procedure,^107 which measures inhibition against the 3′ strand transfer function of the enzyme. This allows a result to be obtained as an inhibition constant (IC50) concentration, which is the standard measurement of inhibition within the literature. Along with the four target molecules, 88 was also re-tested in the 3′ strand transfer assay to determine the IC50 for direct comparison with the literature.
After these compounds and the computer modelling studies had become established, all compounds that were sent for screening in the antibacterial assay were then also cross tested for their ability to inhibit the HIV integrase enzyme.

E.f820 = experiment: Antibacterial screening (MIC) of compounds of Example 2, E.f820; type: cell-based, Enterrococci faecium; details: for Antibacterial activity μg/mL, E.f820: Example 2 compounds, fully vancomycin-resistant strain E.f820
Procedure: as §1, §2, §3

[2] = system: #987 E. faecium van B ST39; experiment: Antibacterial assay (MIC), VRE strain #987, Enterococossel Broth, Example 1; type: cell-based, Enterococcus faecium; details: Enterococcus faecium, VRE, 24 h, read-out: 987 (minimum inhibitory concentration)
Outline: (§4)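 Broth microdilution MIC vs E. faecium VRE strains grown in Enterococossel broth, inoculum 1/1000 of overnight culture; compounds tested in triplicate at 125–0.98 ug/ml (2-fold), top-well DMSO 2.5%. Plates incubated 24 h at 37 °C; MIC read as clear well, no pellet and no black colouring of medium.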

[3] = system: #243 E. faecium van B ST17; experiment: Antibacterial assay (MIC), VRE strain #243, Enterococossel Broth, Example 1; type: cell-based, Enterococcus faecium; details: Enterococcus faecium, VRE, 24 h, read-out: 243 (minimum inhibitory concentration)
Outline: (§5)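 Broth microdilution in Enterococossel Broth, triplicate twofold dilutions from 125 to 0.98 ug/ml, inoculated with 1/1000-diluted overnight E. faecium van B culture. Incubated 24 h at 37° C with slow rotation. MIC read as lowest concentration without pellet or black medium; first-row DMSO 2.5%.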

[4] = system: Staphylococcus aureus (ATCC 6538P); experiment: Antibacterial assay (MIC), Staphylococcus aureus ATCC 6538P, Luria Broth, Example 1; type: cell-based; details: Staphylococcus aureus, ATCC6538P, 24 h, read-out: Sa (minimum inhibitory concentration)
Outline: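 Broth microdilution in Luria Broth, 2-fold series from 125 to 0.98 ug/ml in triplicate, with 1/1000-diluted overnight culture; up to 2.5% DMSO. Incubated 24 hrs at 37° C with slow rotation; MIC read as lowest concentration giving a clear well without bacterial pellet.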

MRSA isolates = details: 43 MRSA isolates from adults with community respiratory infections; cited from earlier work
[5] = system: #449 E. faecium van B ST17; experiment: Antibacterial assay (MIC), VRE strain #449, Enterococossel Broth, Example 1; type: cell-based, Enterococcus faecium; details: Enterococcus faecium, VRE, 24 h, read-out: 449 (minimum inhibitory concentration)
Outline: as §5

[6] = system: E. faecium (VRE, vanA genes); details: typical for VRE E. faecium in hospitals; cited from earlier work
[7] = system: #820 E. faecium van A ST17; experiment: Antibacterial assay (MIC), VRE strain #820, Enterococossel Broth, Example 1; type: cell-based, Enterococcus faecium; details: Enterococcus faecium, VRE, 24 h, read-out: 820 (minimum inhibitory concentration)
Outline: as §4

[8] = system: strains of MRSA which have intermediate resistance to glycopeptides; details: cited from earlier work
S. aureus = details: when penicillin was introduced in mid-1940s; cited from earlier work
[9] = system: E. faecium isolate (VanD-type); details: VanD-type E. faecium isolate from the United States, constitutively resistant; cited from earlier work

Molecule: C=CCOc1ccc2ccccc2c1-c1c(OCC(=O)N[C@H](CCCNC(=N)N)C(=O)Nc2cccc(C(=O)NO)c2)ccc2ccccc12.Cl
- melting point: 158 to 160 °C

Molecule: CCCOc1ccc2ccccc2c1-c1c(OCC(=O)N[C@H](CCCN)C(=O)Nc2cccc(C(=O)NO)c2)ccc2ccccc12.Cl [Compound 163]
- Antibacterial activity μg/mL, E.f449 (E.f449; Example 2 compounds, enterococci strain E.f449): >125 µg/mL
- Antibacterial activity μg/mL, E.f987 (E.f987): >125 µg/mL
- Antibacterial activity μg/mL, S.a ([1]; Example 2 compounds (linear cationic peptides), S. aureus, vancomycin-susceptible strain): 15.6 µg/mL
- Antibacterial activity μg/mL, E.f243 (E.f243; Example 2 compounds, enterococci strain E.f243): >125 µg/mL
- ability to inhibit the HIV integrase enzyme (in words) (HIV integrase enzyme): almost as active as the original lead 88
- Antibacterial activity μg/mL, E.f820 (E.f820): >125 µg/mL

Molecule: CN[C@H](CC(C)C)C(=O)N[C@H]1C(=O)N[C@@H](CC(N)=O)C(=O)N[C@H]2C(=O)N[C@H]3C(=O)N[C@H](C(=O)N[C@H](C(=O)O)c4cc(O)cc(O)c4-c4cc3ccc4O)[C@H](O)c3ccc(c(Cl)c3)Oc3cc2cc(c3O[C@@H]2O[C@H](CO)[C@@H](O)[C@H](O)[C@H]2O[C@H]2C[C@](C)(N)[C@H](O)[C@H](C)O2)Oc2ccc(cc2Cl)[C@H]1O [Vancomycin, vancomycin, reference compound]
- MIC [2]: < 0.98 µg/mL
- MIC [3]: < 0.98 µg/mL
- MIC (E.f449; Enterococcus faecium, read-out: Antibacterial activity μg/mL, E.f449): 62.5 µg/mL (≈ 43.1 µM)
- MIC [4]: 0.99 to 15.6 µg/mL (≈ 0.683 to 10.8 µM)
- susceptibility rates (MRSA isolates): 100%
- MIC (E.f987; Enterococcus faecium, read-out: Antibacterial activity μg/mL, E.f987): < 0.98 µg/mL
- Antibacterial activity μg/mL, E.f987 (E.f987): <0.98 µg/mL
- MIC [5]: 15.7 to 62.5 µg/mL (≈ 10.8 to 43.1 µM)
- minimum inhibitory concentrations (MICs) [6]: > 128 µg/mL
- MIC ([1]; 18 h, read-out: Antibacterial activity (MIC μg/mL)): 1.25 to 2.5 µg/mL (≈ 0.863 to 1.73 µM)
- MIC ([1]; read-out: Antibacterial activity μg/mL, S.a): 1.95 µg/mL (≈ 1.35 µM)
- MIC [7]: > 62.6 µg/mL
- MIC (E.f243; Enterococcus faecium, read-out: Antibacterial activity μg/mL, E.f243): 1.95 µg/mL (≈ 1.35 µM)
- Antibacterial activity μg/mL, E.f820 (E.f820): >125 µg/mL
- MIC (E.f820; read-out: Antibacterial activity μg/mL, E.f820): > 125 µg/mL

Molecule: CC[C@H]1OC(=O)[C@H](C)[C@@H](O[C@H]2C[C@@](C)(OC)[C@@H](O)[C@H](C)O2)[C@H](C)[C@@H](O[C@@H]2O[C@H](C)C[C@H](N(C)C)[C@H]2O)[C@](C)(O)C[C@@H](C)C(=O)[C@H](C)[C@@H](O)[C@]1(C)O [erythromycin]
- susceptibility rates (MRSA isolates): 12%

Molecule: Oc1cc(Cl)ccc1Oc1ccc(Cl)cc1Cl [triclosan]
- minimal bactericidal concns. (MBCs), increased value ([8]; MRSA with intermediate resistance to glycopeptides, decreased susceptibility to biocides): 3.12 mg 1-1
- minimal bactericidal concns. (MBCs), starting value ([8]; value from which the MBC increased): 0.002 mg 1-1

Molecule: gentamicin
- susceptibility rates (MRSA isolates): 86%

Molecule: penicillin
- susceptible S. aureus (S. aureus): ~94%

Molecule: teicoplanin
- MIC [9]: 4 µg/mL
- minimum inhibitory concentrations (MICs) [6]: > 16 µg/mL
